According to article PMC12350525, “Investigation of the inhibitory effects of the telomere-targeted compounds on glutathione S-transferase P1” (Naunyn-Schmiedeberg's Archives of Pharmacology, 2025):
Like-named read-outs stand apart in the source and are kept apart here.

What was measured:
[1] = target: T1, recombinant human GSTP1 (Homo sapiens, UniProt P09211); experiment: GSTP1 enzyme inhibition assay (GSH-CDNB conjugation, spectrophotometric); format: biochemical
T1 construct: made in house; host or cells: E. coli XL-1 Blue
Method: Glutathione S-transferase P1 (GSTP1) plays a significant role in cancer progression and chemotherapy resistance, with its overexpression diminishing chemotherapeutic efficacy across various tumor types. […] Enzyme inhibition assays with recombinant human GSTP1, kinetic analysis, molecular docking, and molecular dynamic simulations were employed. Enzymatic assays were performed in 0.1 M phosphate buffer (pH 6.5) at 30 °C, containing 1 mM EDTA, 1 mM GSH, and 1 mM CDNB. […] Graphical abstract
The human GST P1-1 gene from a K562 erythroleukemia cDNA library (GSTP1*A allele) was cloned into the pKXHP1 plasmid. This plasmid was transformed into E. coli XL-1 Blue cells via heat shock, grown on agar plates, and a single colony was cultured overnight at 37 °C in 2YT medium. […]
The enzyme activity of GSTP1 was measured using a spectrophotometric assay based on the conjugation of glutathione (GSH) to 1-chloro-2,4-dinitrobenzene (CDNB). […] The progress of the reaction was monitored by measuring the absorbance change at 340 nm, indicating the formation of the GSH-CDNB conjugate. Absorbance readings were recorded over 5 min using a SpectraMax M2 microplate reader. Percentage inhibition at each concentration was calculated, and IC₅₀ values were determined using GraphPad Prism 8.4. […]

[2] = target: T2, GSTP1-1 (Homo sapiens, UniProt P09211); experiment: Kinetic inhibition studies with GSTP1 (Lineweaver-Burk, varied GSH or CDNB); format: biochemical
T2 construct: made in house; host or cells: E. coli XL-1 Blue
Method: To assess the inhibition type and calculate the inhibition constant (Ki) values for the compounds, kinetic inhibition studies were performed with GSTP1.
By varying the concentration of one substrate while keeping the other at near-saturation, we assessed how each inhibitor interacted with GSTP1 under various substrate conditions. Lineweaver-Burk plots were used to analyze these interactions, allowing for the determination of the inhibition type (e.g., competitive, non-competitive, or mixed) and the Ki values for each compound. These kinetic parameters were calculated using GraphPad Prism, providing a comprehensive understanding of how the inhibitors influence GSTP1 enzymatic activity.
These plots were generated by varying the concentrations of substrates GSH and CDNB with different inhibitor concentrations.

[3] = test system: GSTP1; conditions: covalent binding to tyrosine residues on GSTP1; ref Louie et al. 2016; cited from earlier work
[4] = CDNB as varied substrate, GSH near-saturating, read-out: Ki CDNB
[5] = GSH as varied substrate, CDNB near-saturating, read-out: Ki GSH

T2 sequence (P09211 whole entry): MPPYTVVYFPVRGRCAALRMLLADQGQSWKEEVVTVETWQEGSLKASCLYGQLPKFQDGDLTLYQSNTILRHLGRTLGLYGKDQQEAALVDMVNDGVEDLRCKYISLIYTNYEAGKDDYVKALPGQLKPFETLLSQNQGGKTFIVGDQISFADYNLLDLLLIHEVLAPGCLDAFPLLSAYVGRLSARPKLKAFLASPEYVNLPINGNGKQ
T1 sequence (P09211 whole entry): as above

IC50 ([1]; as restated in the discussion) [µM]	Type of inhibition CDNB ([2]; CDNB as varied substrate)	Ki [2, 4] [µM]	Type of inhibition GSH ([2]; GSH as varied substrate)	Ki [2, 5] [µM]	Type of inhibition GSH ([2]; GSH as varied substrate, listed as dimer form)	IC50 ([1]; 0.1 M phosphate buffer pH 6.5, 30 °C, 1 mM EDTA, 1 mM GSH, 1 mM CDNB, 2.5% DMSO) [µM]	Structure (SMILES)	IC50 [3] [µM]
0.339	Competitive	0.723	Mixed	0.972	mixed-type		Nc1nc(SSc2nc(N)nc3c2ncn3C2CC(O)C(CO)O2)c2ncn(C3CC(O)C(CO)O3)c2n1 (stereo not drawn) [6-thio-2′-dG-Dimer]	
							C#CCCCN(c1nc(Cl)nc(Cl)n1)[C@H](CC(C)C)C(=O)OC [LAS17]	0.5
	mixed-type	11.4	Noncompetitive	12.3		15.1	Nc1nc2c(ncn2[C@H]2C[C@H](O)[C@@H](CO)O2)c(=S)[nH]1 [Compound 6-thio-dG, 6-thio-2′-deoxyguanosine]	
